Measurements reported in ChEMBL document CHEMBL1201862, “PubChem BioAssay data set” (2004).
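In this assay, cells in 96-well plates receive the compound at five concentrations for 48 hours. Endpoints are linearly interpolated between the surrounding concentrations. GI50 is the concentration that inhibits growth by half.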 Activity calls are given as the source filed them. Cut-off read from the data, not from the text of the source: active = GI50 up to about 1.1 µM and inactive = higher. Non-standard residues stand in square brackets, D forms with d. Residues, ends and D or L forms follow the SMILES beside them. ξ: configuration not given here. *: point of attachment. NMeY = CN[C@@H](Cc1ccc(O)cc1)C(=O)O; Cbz = O=C(OCc1ccccc1)*; ξA = CC(N)C(=O)O

Tests used:
Experiment in all cases: NCI anticancer screen, dose series, 48 h
EKVX = system: EKVX
CAKI-1 = system: CAKI-1
PC-3 = system: PC-3
SK-MEL-5 = system: SK-MEL-5
NCI-H23 = system: NCI-H23
TK-10 = system: TK-10
CCRF-CEM = system: CCRF-CEM
SK-OV-3 = system: SK-OV-3
T47D = system: T47D
MDA-N = system: MDA-N
RPMI-8226 = system: RPMI-8226
SN12C = system: SN12C
NCI-H522 = system: NCI-H522
ACHN = system: ACHN
OVCAR-8 = system: OVCAR-8
HOP-62 = system: HOP-62
SK-MEL-2 = system: SK-MEL-2
A549 = system: A549
HCT-15 = system: HCT-15
HOP-92 = system: HOP-92

Row | Structure (SMILES) | GI50 (EKVX) | GI50 (CAKI-1) | GI50 (PC-3) | GI50 (SK-MEL-5) | GI50 (NCI-H23) | GI50 (TK-10) | GI50 (CCRF-CEM) | GI50 (SK-OV-3) | GI50 (T47D) | GI50 (MDA-N) | GI50 (RPMI-8226) | GI50 (SN12C) | GI50 (NCI-H522) | GI50 (ACHN) | GI50 (OVCAR-8) | GI50 (HOP-62) | GI50 (SK-MEL-2) | GI50 (A549) | GI50 (HCT-15) [µM] | GI50 (HOP-92)
1 | Cc1cn([C@H]2C[C@@H](N3C(=O)c4ccccc4C3=O)[C@@H](CO[Si](C)(C)C(C)(C)C)O2)c(=O)[nH]c1=O | 75.2 µM (inactive) | 53.3 µM (inactive) | > 100 µM (inactive) | > 100 µM (inactive) | 31.6 µM (inactive) | > 100 µM (inactive) | 36 µM (inactive) | 30.1 µM (inactive) | > 100 µM (inactive) | > 100 µM (inactive) | > 100 µM (inactive) | > 100 µM (inactive) | 50.4 µM (inactive) | 62.7 µM (inactive) | 32.5 µM (inactive) | 20.7 µM (inactive) | 46.8 µM (inactive) | 85.5 µM (inactive) | > 100 | 48.6 µM (inactive)
2 | COc1ccc(C[C@@H](C(=O)NCC(N)=O)N(C)C(=O)[C@@H]2CCCN2C(=O)[C@H](CC(C)C)NC(=O)C(C)NC(=O)OCc2ccccc2)cc1 (stereo not given in full) (Cbz-[ξA]LP[NMeY](Me)G-NH2) | > 100 µM (inactive) | > 100 µM (inactive) | > 100 µM (inactive) | > 100 µM (inactive) | > 100 µM (inactive) | > 100 µM (inactive) | > 100 µM (inactive) | > 100 µM (inactive) | > 100 µM (inactive) | > 100 µM (inactive) | > 100 µM (inactive) | > 100 µM (inactive) | > 100 µM (inactive) | > 100 µM (inactive) | > 100 µM (inactive) | > 100 µM (inactive) | > 100 µM (inactive) | > 100 µM (inactive) | > 100 | > 100 µM (inactive)
